Results taken from patent publication US20240240155A1, “Organoid-Derived Monolayers and Uses Thereof” (Hub Organoids IP B.V., priority 2021, published 2024).

Columns and labels:
P-gp [1] = biological target: T1, P-gp (Homo sapiens, UniProt P08183); test: Calcein transport assay, pulse-chase format, lung-C monolayers; type: cell-based; settings: T=2 hours
T1 construct: endogenous in cells; host or cells: human lung organoid-derived monolayer (donor lung-C)

P-gp [2] = biological target: T1, P-gp; test: Rhodamine transport assay, kidney-C monolayers; type: cell-based; settings: 1 μM, 30 mins; day 7
P-gp [3] = biological target: T1, P-gp; test: Calcein transport assay, kidney-C monolayers; type: cell-based; settings: 1 μM, 30 mins; KEM or DAC conditions, day 7
P-gp [4] = biological target: T1, P-gp; test: Calcein transport assay, accumulation format, lung-C monolayers; type: cell-based; settings: 1 μM, 30 mins; LuM LLI and LuM ALI
[5] = system: Human gastro-intestinal tract organoid-derived monolayers; test: Polarisation assay: TEER and Lucifer yellow permeability after apical or basolateral treatment; type: cell-based; settings: eCDM; apical, basolateral or both compartments; day 3 after seeding
[6] = system: normal colon-derived epithelium monolayers; type: cell-based, human; settings: cytokine-treated colon monolayers
[7] = system: normal colon-derived epithelium monolayers; test: Cytokine-induced barrier injury with tofacitinib pre-treatment, Lucifer Yellow permeability assay; type: cell-based, human
[8] = system: normal colon-derived epithelium monolayers; test: Cytokine-induced barrier injury with tofacitinib pre-treatment, TEER; type: cell-based, human
Description: (A) Transepithelial electrical resistance (TEER). (B) relative TEER value from the same Transwell before treatment after 5 and 24 hours. (C) Permeability and (D) Cell viability of the same Transwell after 24 hours in response to treatments. […] (E) TEER (top), permeability (middle) and cell viability (bottom) dose response curves. EC50 values were calculated by Non-linear regression log(inhibitor) versus response variable slope (four parameters) of three technical replicates.
(A) Transepithelial electrical resistance (TEER). (B) Relative TEER values from the same Transwell before treatment after 5 and 24 hours. (C) Permeability and (D) Cell viability of the same Transwell after 24 hours in response to treatments. […] An unpaired t-test was performed on permeability and cell viability data. A one-way ANOVA (Dunett's multiple comparisons test) was done on normalized TEER, permeability and cell viability data. *P<0.05, **P<0.01, ***P<0.001.
At this point, the culture medium was changed to cCDM until epithelium monolayer barrier integrity further increased (TEER >1000 Ω·cm^2). […] These measurements were normalized to the TEER value of the same Transwell before measurement, to correct for well-to-well TEER variability (FIG. 7B). Paracellular permeability was measured by the Lucifer Yellow (LY) permeability assay after 24 hours (FIG. 7C). Subsequently, monolayer cell viability was measured by the ATP Luminescent Assay, CellTiter-Glo 3D, to monitor for loss of barrier function due to cell death, as opposed to increased paracellular permeability. […] (FIG. 7D).

[9] = system: normal ileum-derived organoid epithelium monolayers; test: as above; type: cell-based, human
Description: (A) Transepithelial electrical resistance (TEER). (B) Relative TEER values from the same Transwell before treatment after 5 and 24 hours. (C) Permeability and (D) Cell viability of the same Transwell after 24 hours in response to treatments. Data are represented as mean±SD for 3 technical replicates. An unpaired t-test was performed on permeability and cell viability data. A one-way ANOVA (Dunett's multiple comparisons test) was done on normalized TEER, permeability and cell viability data. *P<0.05, **P<0.01, ***P<0.001.
The experimental condition above were reproduced by repeating the same experiment with same normal colon-derived epithelium monolayer and extended to normal ileum-derived organoid epithelium monolayers from the same donor, as in the previous experiment.
To address IFN-γ specificity in inducing barrier injury, TNF-α/IL-1α combination (data not shown) was included in addition to IFN-γ/TNF-α/IL-1α and IFN-γ/TNF-α.

[10] = system: IBD-PDO derived distal colon epithelium monolayers; test: Barrier function assay in IBD-PDO monolayers, TEER; type: cell-based, human; settings: highest tofacitinib concentration
Description: (A-C) Transepithelial electrical resistance (TEER). (D-F) relative TEER value from the same Transwell before treatment after 5 and 24 hours. (G-I) Permeability and (J-L) cell viability of the same Transwell after 24 hours in response to treatments. Data represented as mean±SD for 3 technical replicates. A two-way ANOVA (Dunett's multiple comparisons test) was done on normalized TEER, all conditions were compared to the pre-treatment conditions. For permeability and cell viability data a one-way ANOVA (Dunett's multiple comparisons test) was used. ****P<0.0001; ***P<0.001; **P<0.01; *P<0.1; ns, not significant.
(§1) IBD patient-derived organoid (IBD-PDO) monolayer cultures from ileum, proximal and distal colon were established following the same protocols used in previous experiments. […] Their barrier integrity was measured at 5 and 24 hours followed by LY permeability and cell viability performed (FIGS. 10, 11).

[11] = system: IBD-PDO proximal colon epithelium monolayers; test: Barrier function assay in IBD-PDO monolayers, TEER; type: cell-based, human; settings: after 24 hours
Description: as §1

[12] = system: IBD-PDO ileum epithelium monolayers; test: Barrier function assay in IBD-PDO monolayers, TEER; type: cell-based, human; settings: 0.1, 2 and 10 μM pre-treatment
Description: (A) Transepithelial electrical resistance (TEER). (B) relative TEER value from the same transwell before treatment after 5 and 24 hours. (C) Permeability and (D) cell viability of the same Transwell after 24 hours in response to treatments. Data represented as mean±SD for 3 technical replicates. A two-way ANOVA (Dunett's multiple comparisons test) was done on normalized TEER, all conditions were compared to the pre-treatment conditions. For permeability and cell viability data a one-way ANOVA (Dunett's multiple comparisons test) was used. ****P<0.0001; ***P<0.001; **P<0.01; *P<0.1; ns, not significant.
as §1

[13] = system: IBD-PDO derived distal colon epithelium monolayers; test: Barrier function assay in IBD-PDO monolayers, cell viability; type: cell-based, human; settings: 0.1, 2 and 10 μM pre-treatment
[14] = system: IBD-PDO derived distal colon epithelium monolayers; test: Barrier function assay in IBD-PDO monolayers, LY permeability; type: cell-based, human; settings: 0.1, 2 and 10 μM pre-treatment
[15] = system: IBD-PDO ileum epithelium monolayers; test: Barrier function assay in IBD-PDO monolayers, cell viability; type: cell-based, human; settings: 0.1, 2 and 10 μM pre-treatment
[16] = system: normal ileum-derived organoid epithelium monolayers; test: Cytokine-induced barrier injury with tofacitinib pre-treatment, LY permeability; type: cell-based, human; settings: 10 μM tofacitinib, IFN-γ containing cytokine cocktails
[17] = system: IBD-PDO ileum epithelium monolayers; test: Barrier function assay in IBD-PDO monolayers, LY permeability; type: cell-based, human; settings: 0.1, 2 and 10 μM pre-treatment
ALK5 (TGF-βR1) = biological target: T2, ALK5 (TGF-βR1) (Homo sapiens, UniProt P36897); settings: high concentrations; cited from earlier work
T2 sequence (P36897 34-503): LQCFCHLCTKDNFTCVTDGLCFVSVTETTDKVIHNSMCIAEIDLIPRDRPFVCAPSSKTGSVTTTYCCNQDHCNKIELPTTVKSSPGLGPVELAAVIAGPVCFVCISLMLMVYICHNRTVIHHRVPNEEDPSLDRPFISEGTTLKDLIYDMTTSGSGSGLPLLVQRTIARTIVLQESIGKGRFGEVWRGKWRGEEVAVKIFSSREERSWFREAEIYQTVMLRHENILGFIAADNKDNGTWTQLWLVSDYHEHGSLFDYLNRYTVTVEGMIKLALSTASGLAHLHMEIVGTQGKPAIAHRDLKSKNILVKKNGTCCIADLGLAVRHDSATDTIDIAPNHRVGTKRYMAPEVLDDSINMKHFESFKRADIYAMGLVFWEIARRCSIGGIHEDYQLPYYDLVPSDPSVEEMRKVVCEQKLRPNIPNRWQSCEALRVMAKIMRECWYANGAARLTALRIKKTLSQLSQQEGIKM

[18] = system: normal colon derived epithelium monolayers; test: Proinflammatory cytokine titration, barrier injury by TEER; type: cell-based, human; settings: cCDM culture condition, 24 hours after cytokine addition
From the text: FIG. 6 illustrates inducing barrier injury to normal colon derived epithelium monolayers on 96 well transwell plates in expansion (CNM) and combination (cCDM) culture conditions by serial titration of proinflammatory cytokines. All proinflammatory cytokines were used at the final concentrations listed on the graph regardless of combination. (A)-(H) illustrate transepithelial […] (TEER) in CNM and cCDM culture conditions. Data are represented as mean±SD for 3 technical replicates. […] EC50 dose response curves were calculated by Non-linear regression log(inhibitor) versus response variable slope (four parameters).
As IFN-γ has major impact in inducing barrier damage via JAK-STAT signalling pathway, we titrated different combinations of three indicated proinflammatory cytokines to resolve TNF-α and IL-1α synergy in combination with IFN-γ. […] The lower sensitivity of organoid-derived epithelium monolayers cultured in CNM correlated with a lower expression of IFN-γ receptor (IFNGR1) compared to the cCDM culture condition.

T1 sequence (P08183 whole entry): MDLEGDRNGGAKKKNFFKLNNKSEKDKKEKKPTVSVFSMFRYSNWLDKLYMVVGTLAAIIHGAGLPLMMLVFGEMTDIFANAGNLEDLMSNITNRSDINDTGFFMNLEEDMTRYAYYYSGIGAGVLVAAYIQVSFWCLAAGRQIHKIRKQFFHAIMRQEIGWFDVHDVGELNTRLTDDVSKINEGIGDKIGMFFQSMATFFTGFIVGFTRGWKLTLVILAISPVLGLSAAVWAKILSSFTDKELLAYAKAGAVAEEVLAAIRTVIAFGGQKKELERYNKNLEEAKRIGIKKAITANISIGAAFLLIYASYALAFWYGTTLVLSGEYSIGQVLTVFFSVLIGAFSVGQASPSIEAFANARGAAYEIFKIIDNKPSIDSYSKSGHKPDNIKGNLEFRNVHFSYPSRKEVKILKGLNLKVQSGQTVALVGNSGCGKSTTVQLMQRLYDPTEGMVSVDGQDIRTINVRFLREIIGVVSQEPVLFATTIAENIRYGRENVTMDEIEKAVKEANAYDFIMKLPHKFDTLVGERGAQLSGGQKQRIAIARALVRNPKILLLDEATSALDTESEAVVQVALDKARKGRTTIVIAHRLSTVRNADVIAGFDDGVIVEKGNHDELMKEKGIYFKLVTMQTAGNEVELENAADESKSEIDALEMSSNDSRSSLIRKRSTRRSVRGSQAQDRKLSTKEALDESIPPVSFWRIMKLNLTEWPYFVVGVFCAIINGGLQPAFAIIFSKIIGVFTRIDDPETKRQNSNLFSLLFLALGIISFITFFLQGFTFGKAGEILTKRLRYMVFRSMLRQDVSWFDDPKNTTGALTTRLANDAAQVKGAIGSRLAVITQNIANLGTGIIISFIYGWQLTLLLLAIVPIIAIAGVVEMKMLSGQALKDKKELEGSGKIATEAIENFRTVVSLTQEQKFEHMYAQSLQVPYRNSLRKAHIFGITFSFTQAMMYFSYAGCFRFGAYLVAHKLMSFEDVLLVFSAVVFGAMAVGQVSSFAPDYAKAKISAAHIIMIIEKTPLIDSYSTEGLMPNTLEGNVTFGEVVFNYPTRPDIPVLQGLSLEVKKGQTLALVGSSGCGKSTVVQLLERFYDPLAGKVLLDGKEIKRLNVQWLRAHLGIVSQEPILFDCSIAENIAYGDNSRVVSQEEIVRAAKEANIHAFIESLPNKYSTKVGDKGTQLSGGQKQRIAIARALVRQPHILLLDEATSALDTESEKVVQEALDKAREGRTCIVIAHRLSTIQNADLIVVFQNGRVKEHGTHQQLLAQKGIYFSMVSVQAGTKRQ

Molecule: C/C=C/C[C@@H](C)C(=O)[C@H]1C(=O)N[C@@H](C(C)C)C(=O)N(C)CC(=O)N(C)[C@@H](CC(C)C)C(=O)N[C@@H](C(C)C)C(=O)N(C)[C@@H](CC(C)C)C(=O)N[C@@H](C)C(=O)N[C@H](C)C(=O)N(C)[C@@H](CC(C)C)C(=O)N(C)[C@@H](CC(C)C)C(=O)N(C)[C@@H](C(C)C)C(=O)N1C [PSC833]
- Calcein AM accumulation or efflux (P-gp [1]): did not show notable effects on Calcein AM accumulation or efflux
- cellular accumulation of Rhodamine (P-gp [2]): Increased cellular accumulation of Rhodamine
- cellular accumulation of Calcein AM (P-gp [3]): Increased cellular accumulation of Calcein AM
- cellular accumulation of Calcein AM (P-gp [4]): Increased cellular accumulation of Calcein AM

Molecule: COc1cc2ncnc(Nc3ccc(F)c(Cl)c3)c2cc1OCCCN1CCOCC1 [Gefitinib]
- integrity of organoid-derived epithelial monolayers (TEER, Lucifer yellow permeability) [5]: compromised only when Gefitinib is added to the basolateral compartment

Molecule: C[C@@H]1CCN(C(=O)CC#N)C[C@@H]1N(C)c1ncnc2[nH]ccc12 [tofacitinib]
- pre-treatment concentration that prevented cytokine induced cell death [6]: above 3 μM
- EC50 ([7]; Homo sapiens, read-out: Permeability (EC50 of tofacitinib dose response, FIG. 7E), IFN-γ/TNF-α/IL-1α 1 ng/mL): 316 nM
- concentration at which apparent permeability of LY was reduced ([7]; cytokine-treated colon monolayers): above 3 μM
- pre-treatment concentration that maintained barrier function integrity ([8]; both cytokine combinations, TEER): above 3 μM
- tofacitinib pre-treatment concentration that protected monolayers ([8]; colon): 2 µM
- inhibition of TNF-α/IL-1α induced barrier function injury ([8]; highest tofacitinib concentration used): not inhibited by highest tofacitinib concentration used
- protection from cytokine induced barrier injury ([8]; tofacitinib 0.1 μM pre-treatment): partially protected
- protection from cytokine induced barrier injury ([8]; tofacitinib 2 μM pre-treatment): completely
- tofacitinib pre-treatment concentration that protected monolayers [9]: 10 µM
- effect on TNF-α/IL-1α reduced barrier function integrity [10]: not inhibited or restored with highest tofacitinib concentration
- inhibition of induced damage (TEER) ([10]; 5 hours): not completely inhibited even with highest tofacitinib concentration
- restoration of induced damage (TEER) ([10]; 24 hours): restored after 24 hours
- pre-treatment concentration with which barrier integrity damage was completely restored [11]: higher than 0.1 μM
- inhibition of IFN-γ/TNF-α/IL-1α and IFN-γ/TNF-α barrier injury (TEER) [12]: inhibited by tofacitinib pre-treatment in a dose response manner
- inhibition of cytokine-compromised cell viability [13]: inhibited by tofacitinib in a dose responsive manner
- inhibition of cytokine-compromised LY permeability [14]: inhibited by tofacitinib in a dose responsive manner
- inhibition of cytokine-compromised cell viability [15]: inhibited by tofacitinib in a dose responsive manner
- LY permeability after pre-treatment [16]: became impermeable again
- inhibition of cytokine-compromised LY permeability [17]: inhibited by tofacitinib in a dose responsive manner

Molecule: C[S+]([O-])c1ccc(-c2nc(-c3ccc(F)cc3)c(-c3ccncc3)[nH]2)cc1 (centres unmarked) [SB-203580]
- concentration at which it is thought to inhibit ALK5 (ALK5 (TGF-βR1)): ≥ 10 µM

B1: IFN-γ: proinflammatory cytokine, single treatment (protein, UniProt P01579 24-161, looked up)
Interferon gamma: QDPYVKEAENLKKYFNAGHSDVADNGTLFLGILKNWKEESDRKIMQSQIVSFYFKLFKNFKDDQSIQKSVETIKEDMNVKFFNSNKKKRDDFEKLTNYSVTDLNVQRKAIHELIQVMAELSPAAKTGKRKRSQMLFRG
- EC50 calculated from EC50 dose response curves (TEER) [18]: 3.71
